≈ marks a conversion by molar mass, not a printed value.
Tests used:
[1] = tested on: Staphylococcus aureus 209P; assay: In vitro antibacterial activity (Test 2); assay type: cell-based; conditions: Nutrient Agar Eiken, read-out: Minimum Growth Inhibitory Concentration (MIC)
Experimental: (§1) Antibacterial activity was measured by the agar plate dilution method, whereby the minimum growth inhibitory concentration (MIC: μg/ml) against various pathogenic bacteria was determined. The test results on the antibacterial activity of the compounds of the invention of Examples 3 and 7 against Staphylococcus aureus 209P, Escherichia coli NIHJ and Pseudomonas aeruginosa No. 7 are shown in Table 2.
(§2) The antibacterial activities of the compounds of the invention of Examples 3 and 7 and meropenem against Staphylococcus aureus 209P, Escherichia coli NIHJ and Pseudomonas aeruginosa 3719 (strain resistant to meropenem) are shown in Table 3.
(§3) The medium used for the measurement was Nutrient Agar Eiken (Eiken Chemicals Co., Ltd.).

[2] = tested on: Pseudomonas aeruginosa 3719 (strain resistant to meropenem); assay: In vitro antibacterial activity (Test 2); assay type: cell-based; conditions: Pseudomonas aeruginosa 3719 (resistant to meropenem); Nutrient Agar Eiken; read-out: Minimum Growth Inhibitory Concentration (MIC)
Experimental: as §1, §2, §3

Escherichia coli NIHJ [3] = assay: In vitro antibacterial activity (Test 2); assay type: cell-based; conditions: Nutrient Agar Eiken, read-out: Minimum Growth Inhibitory Concentration (MIC)
Experimental: as §1, §2, §3

[4] = tested on: Staphylococcus aureus 209P; assay: In vitro antibacterial activity by agar plate dilution method (Test 1); assay type: cell-based; conditions: Mueller-Hinton II agar, read-out: Minimum Growth Inhibitory Concentration (MIC)
Experimental: (§4) Antibacterial activity was measured by the agar plate dilution method, whereby the minimum growth inhibitory concentration (MIC: μg/ml) against various pathogenic bacteria was determined. The test results on the antibacterial activity of the compounds of the invention of Examples 3 and 7 against Staphylococcus aureus […], Escherichia coli NIHJ and Pseudomonas aeruginosa No. 7 are shown in Table 2. Incidentally, Compounds A and B used for comparison are compounds of Example 3 in Japanese Patent Application Kokai No. Hei 5-310740 [compounds represented by the formula (I) of the present invention, wherein R^1, R^2 and R^3 represent hydrogen atoms]. Compound A has the R configuration at the binding position of the aminomethyl group. Compound B has the S configuration at the binding position of the aminomethyl group. The medium used for the measurement was Mueller-Hinton II agar (MHA, Becton Dikinson Microbiology Systems).

[5] = tested on: Pseudomonas aeruginosa No. 7; assay: as above; assay type: cell-based; conditions: Mueller-Hinton II agar, read-out: Minimum Growth Inhibitory Concentration (MIC)
Experimental: as §4

Escherichia coli NIHJ [6] = assay: as above; assay type: cell-based; conditions: Mueller-Hinton II agar, read-out: Minimum Growth Inhibitory Concentration (MIC)
Experimental: as §4

[7] = Pharmacokinetics such as half-life in blood; conditions: in vivo
Pseudomonas aeruginosa = assay: Antibacterial activity against Pseudomonas aeruginosa compared with aminomethyl compounds A and B; assay type: cell-based
Experimental: as §4, with “culture of” for “medium used for”, “bacterial strain to be tested” for “measurement”, “inoculated intraperitoneally to groups of mice (SPF, DDY, male), each group consisting of 7 animals. A solution of the test compound was subcutaneously administered twice in total to the mice, once immediately and once four hours after the inoculation. From the survival ratio five days after infection, the 50% effective dose (ED50 : mg/kg) was determined by the Probit method and the single dose of test compound was indicated.” for “Mueller-Hinton II agar (MHA, Becton Dikinson Microbiology Systems).”

[8] = tested on: Pseudomonas aeruginosa 1008; assay: In vivo antibacterial activity, treatment of infected mice (Test 3); set-up: species or system mice (SPF, DDY, male); conditions: Pseudomonas aeruginosa, 1008, sc, 120 h, intraperitoneal infection, subcutaneous twice (immediately and 4 h after inoculation), survival at five days, expressed as single dose, read-out: Treatment against infections, 50% effective dose (ED50)
Experimental: The culture of the bacterial strain to be tested was inoculated intraperitoneally to groups of mice (SPF, DDY, male), each group consisting of 7 animals. A solution of the test compound was subcutaneously administered twice in total to the mice, once immediately and once four hours after the inoculation. From the survival ratio five days after infection, the 50% effective dose (ED50 : mg/kg) was determined by the Probit method and the single dose of test compound was indicated. The test results of the compound of Example 3, compound A and Meropenem against Pseudomonas aeruginosa 1008 are shown in Table 4. Incidentally, Compound A is as described above.

Nephrotoxicity = assay type: in vivo; conditions: rabbits, intravenous, 200 mg/kg
Experimental: When the compounds of the present invention were administered to rabbits, the incorporation in to the renal cortex is relatively low.

Compound	MIC [1]	MIC [2]	MIC (Escherichia coli NIHJ [3])	MIC [4]	MIC [5]	MIC (Escherichia coli NIHJ [6])	pharmacokinetic properties such as half-life in blood [7]	activity against Pseudomonas aeruginosa (Pseudomonas aeruginosa)	ED50 [8]	nephrotoxicity (Nephrotoxicity)
CNC[C@H]1CCN(C(=O)[C@@H]2C[C@H](SC3=C(C(=O)O)N4C(=O)[C@H]([C@@H](C)O)[C@H]4[C@H]3C)CN2)C1 [Example 3, (1R,5S,6S)-6-[(1R)-1-Hydroxyethyl]-1-methyl-2-[(2S,4S)-2-[(3R)-3-methylaminomethylpyrrolidin-1-ylcarbonyl]pyrrolidin-4-ylthio]-1-carbapen-2-em-3-carboxylic acid]	≤ 0.01 µg/mL	0.2 µg/mL (≈ 0.442 µM)	≤ 0.01 µg/mL	0.02 µg/mL (≈ 0.0442 µM)	0.05 µg/mL (≈ 0.11 µM)	0.02 µg/mL (≈ 0.0442 µM)	excellent pharmacokinetic properties such as half-life in blood	superior activity against Pseudomonas aeruginosa	0.22 mg/kg	did not exhibit nephrotoxicity
C[C@@H](O)[C@H]1C(=O)N2C(C(=O)O)=C(S[C@@H]3CN[C@H](C(=O)N4CC[C@H](CNC(=N)N)C4)C3)[C@H](C)[C@H]12 [Example 7, (1R,5S,6S)-2-[(2S,4S)-2-[(3R)-3-Guanidinomethylpyrrolidin-1-ylcarbonyl]pyrrolidin-4-ylthio]-6-[(1R)-1-hydroxyethyl]-1-methyl-1-carbapen-2-em-3-carboxylic acid]	≤ 0.01 µg/mL	0.1 µg/mL (≈ 0.208 µM)	≤ 0.01 µg/mL	0.02 µg/mL (≈ 0.0416 µM)	0.05 µg/mL (≈ 0.104 µM)	0.02 µg/mL (≈ 0.0416 µM)	–	–	–	–
C[C@@H](O)[C@H]1C(=O)N2C(C(=O)O)=C(S[C@@H]3CN[C@H](C(=O)N(C)C)C3)[C@H](C)[C@H]12 [Meropenem, meropenem, reference compound]	0.02 µg/mL (≈ 0.0522 µM)	6.2 µg/mL (≈ 16.2 µM)	≤ 0.01 µg/mL	–	–	–	–	–	0.72 mg/kg	–
